Reference: the NIST ThermoML archive (doi:10.1016/j.jct.2015.02.022)
Structures can show the parent of a compound that is named as a salt. ± gives the expanded uncertainty stated by the source.

Assays:
[1] = Liquid; for vapor or sublimation pressure: Closed cell (Static) method; for viscosity / mass density: 101.33 kPa; for viscosity: Capillary tube (Ostwald / Ubbelohde) method; for mass density: Pycnometric method
[2] = refractive index (Na D-line) (dimensionless); details: 293.15 K; 101.33 kPa; Liquid; Standard Abbe refractometry

CO [methanol]
[1]
Details	vapor or sublimation pressure [kPa]	viscosity [mPa·s]
293.35 K	13.54 ± 0.09	–
302.45 K	–	0.513 ± 0.011
303.35 K	22.05 ± 0.15	–
310.85 K	31.07 ± 0.21	–
313.5 K	–	0.443 ± 0.009
320.97 K	49.45 ± 0.33	–
323.55 K	–	0.386 ± 0.008
331.45 K	77.05 ± 0.51	–
333.85 K	–	0.345 ± 0.007
335.95 K	95.83 ± 0.64	–

CCOC(=O)C(F)(F)F [ethyl trifluoroacetate]
[1]
Details	mass density [kg/m3]	vapor or sublimation pressure [kPa]	viscosity [mPa·s]
278.08 K	1218.9 ± 0.8	–	–
285.15 K	1205.9 ± 0.8	–	–
289.23 K	1197.6 ± 0.8	–	–
293.35 K	–	17.93 ± 0.12	–
293.45 K	–	–	0.4635 ± 0.0098
293.68 K	1188.3 ± 0.8	–	–
296.02 K	–	–	0.4506 ± 0.0095
298.3 K	–	22.86 ± 0.15	–
298.63 K	–	–	0.4356 ± 0.0092
298.84 K	1179 ± 0.8	–	–
300.75 K	–	25.36 ± 0.17	–
301.19 K	–	–	0.4234 ± 0.0089
303.35 K	–	28.45 ± 0.19	–
303.75 K	–	–	0.4107 ± 0.0087
303.86 K	1168 ± 0.8	–	–
305.85 K	–	31.2 ± 0.21	–
306.3 K	–	–	0.3986 ± 0.0084
307.89 K	1160.9 ± 0.8	–	–
308.35 K	–	34.13 ± 0.23	–
308.85 K	–	–	0.3881 ± 0.0082
310.85 K	–	38 ± 0.25	–
311.33 K	–	–	0.3775 ± 0.008
312.65 K	1151.4 ± 0.8	–	–
313.35 K	–	42.3 ± 0.28	–
313.93 K	–	–	0.3674 ± 0.0078
315.85 K	–	47.2 ± 0.31	–
316.43 K	–	–	0.3581 ± 0.0076
317.43 K	1142.2 ± 0.8	–	–
318.4 K	–	52 ± 0.35	–
318.96 K	–	–	0.3497 ± 0.0074
320.97 K	–	57.2 ± 0.38	–
321.63 K	–	–	0.3399 ± 0.0072
322.5 K	1131.3 ± 0.8	–	–
323.45 K	–	63.2 ± 0.42	–
324.15 K	–	–	0.3314 ± 0.0071
326.15 K	–	70.64 ± 0.47	–
326.69 K	–	–	0.323 ± 0.007
328.75 K	–	77.9 ± 0.52	–
329.16 K	–	–	0.3153 ± 0.0067
331.45 K	–	86.5 ± 0.57	–
331.64 K	–	–	0.3075 ± 0.0066
334.05 K	–	94.15 ± 0.62	–
334.32 K	–	–	0.3009 ± 0.0064
335.25 K	–	99.92 ± 0.66	–
335.65 K	–	101.33 ± 0.67	–

Details	refractive index
[2]	1.3086 ± 0.0007
